Earlier results, collected in patent publication US10421710B2, “Substituted phenethylamines with serotoninergic and/or norepinephrinergic activity” (Auspex Pharmaceuticals, Inc., priority 2007, dated 2019).
Several values for one entry are separate records, joined by “and”; a condition that tells them apart may be missing. Equal entries are not always repeated.

Conditions: in humans (b8); species not repeated

| half-life (T1/2) | SMILES |
| --- | --- |
| ~5 h and 3 to 7 h | COc1ccc(C(CN(C)C)C2(O)CCCCC2)cc1 (racemic) [venlafaxine, 1-[2-dimethylamino-1-(4-methoxy-phenyl)-ethyl]-cyclohexanol] |
| ~11 h and 11 h | CN(C)CC(c1ccc(O)cc1)C1(O)CCCCC1 (centres unmarked) [ODV, 0-desmethylvenlafaxine] |
